# Test results taken from article PMC12389534, “Unlocking Therapeutic Potential of Novel Thieno-Oxazepine Hybrids as Multi-Target Inhibitors of AChE/BChE and Evaluation Against Alzheimer’s Disease: In Vivo, In Vitro, Histopathological, and Docking Studies” (Pharmaceuticals, 2025).
# Experiments:
# [1] = test system: AlCl3-induced AD rat model; experiment: Morris water maze (MWM) test in AlCl3-induced AD rats; type: in vivo; conditions: mean ± SE, n = 6
# Protocol: (§1) All procedures were conducted conforming to the applicable National Institutes of Health standards and regulations for the Care and Use of Laboratory Animals. In this experiment, adult male Dawley rats in excellent condition weighing between 300 and 320 g were used. The animals were acquired from the Nile Company for Pharmaceuticals and Chemical Industries (Cairo, Egypt). They were placed in a controlled laboratory setting with unrestricted access to water, a temperature range of 24 to 26 °C, and 12 h a light–dark cycle. Three rats per cage were housed in polycarbonate cages that were individually packed with paper and encased with stainless steel wire.
# Spatial learning and memory were inspected using the MWM test. Tap water was poured into a 150 cm diameter by 60 cm high circular water tank until it reached a depth of 30 cm (25 ± 2 °C). To make the water […], non-toxic white dye was applied. The east, west, north, and south quadrants of the pool were essentially separated into four equal sections. At a specific spot in the middle of one quadrant, an escape platform with a diameter of 10 cm was submerged 2 cm below the water’s surface. The platform stood in the exact same quadrant throughout the testing. The rats’ swimming route was recorded by a video camera situated above the pool. From a designated spot in each quadrant, each rat was submerged in the water with its back turned to the pool wall, and it was then left to swim to the platform. The rats received training sessions every day for three days in a row, with four trials conducted in each session. Before the next trial began, the animals were kept a maximum of 60 s to explore the hidden platform. After that, they were permitted to relax on it for 20 s. The rat was positioned gently on the platform and allowed 20 s to rest if it took longer than 60 s to locate it. The time taken to find the platform, or the escape latency, was documented. In order to do a probing test on the fourth day, the platform was detached away, and the rats were given 60 s to swim liberally. The time spent in the assigned quadrant was counted.
# [2] = test system: AlCl3-induced AD rat model; experiment: Y-maze SAP test in AlCl3-induced AD rats; type: in vivo; conditions: mean ± SE, n = 6
# Protocol: as §1
# One kind of short-term memory that SAP can represent is spatial working memory. Three arms, designated A, B, or C, were employed in a black hardwood Y-maze with a symmetrical triangular core space. Rats were briefly positioned at the edge of one arm and given 8 min to freely navigate around the maze. When the rat’s rear paws were fully inside the arm, the entries were counted. The following formula was used to determine SAP based on the total number of arm entries and alternations: SAP (%) = [number of alternations/(total arm entries − 2)] × 100 [94].
compound,measurement,setting,value
"COc1cc2c(cc1OC)C(=O)C(CC1CCN(Cc3ccccc3)CC1)C2 (stereo not drawn) [Donepezil, reference compound]",Learning (s),[1]; escape latency,14.78 ± 0.83 ^ab s
same,Memory (s),[1]; time spent in target quadrant,42.67 ± 0.61 ^ab s
same,SAP%,[2],85 ± 0.58 ^ab %
